This data set has as its target T1, FAP (cell extract from 293 cells stably transfected with FAP) (Homo sapiens, UniProt Q12884).
T1 construct: Cell extract from 293 cells stably transfected with FAP prepared as described; expressed in transfected cells; host or cells: human embryonic kidney 293 cells (clone 293-I/2), vector pFAP.38
T1 sequence (Q12884 1-760): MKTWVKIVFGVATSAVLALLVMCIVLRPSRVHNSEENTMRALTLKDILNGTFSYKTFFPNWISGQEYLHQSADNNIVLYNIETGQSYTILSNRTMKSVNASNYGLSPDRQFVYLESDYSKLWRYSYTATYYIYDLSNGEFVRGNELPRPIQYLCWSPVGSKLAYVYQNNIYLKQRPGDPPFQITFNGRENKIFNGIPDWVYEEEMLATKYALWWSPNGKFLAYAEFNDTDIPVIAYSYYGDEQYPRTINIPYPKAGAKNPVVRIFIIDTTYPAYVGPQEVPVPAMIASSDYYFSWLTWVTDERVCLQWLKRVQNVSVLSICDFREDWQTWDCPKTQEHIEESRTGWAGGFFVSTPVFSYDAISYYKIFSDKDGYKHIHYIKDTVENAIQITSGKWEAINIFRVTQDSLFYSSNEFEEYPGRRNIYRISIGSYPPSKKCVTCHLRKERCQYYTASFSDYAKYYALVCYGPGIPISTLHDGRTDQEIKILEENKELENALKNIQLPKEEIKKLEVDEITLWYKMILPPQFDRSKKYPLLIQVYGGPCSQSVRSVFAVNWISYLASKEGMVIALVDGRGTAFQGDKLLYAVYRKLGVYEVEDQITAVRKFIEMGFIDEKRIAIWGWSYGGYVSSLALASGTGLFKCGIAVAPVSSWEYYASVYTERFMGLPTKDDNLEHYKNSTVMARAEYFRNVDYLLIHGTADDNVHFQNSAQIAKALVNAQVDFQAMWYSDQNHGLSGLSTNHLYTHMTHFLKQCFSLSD
Description: Assay for cleavage of AMCA substrates by FAP. In kind it is biochemical. Particulars: 1 ng FAP enzyme, 20 μl 2.5 mM substrate in 100 μl, room temperature, 1 hour; FAP-negative 293 control extract subtracted. On the procedure:
The turnover and cleavage rate have been determined with the aid pf the following assay:
Assay for cleavage of AMCA substrates by FAP
Cell extract from 293 cells stably transfected with FAP prepared as described (see Park, et al., Fibroblast Activation Protein, a Dual Specificity Serine Protease expressed in human tumor stromal fibroblasts. (1999) J. Biol. Chem. 36505-12.). A similar extract was also prepared from parental 293 control cells without FAP. The FAP concentration in the FAP-transfected cell extract was estimated by immunoassay and 1 ng enzyme (diluted in buffer A) was used per assay. FAP-negative 293 control cell extract was used at the same dilution (also in buffer A) as a negative control. Substrate was initially dissolved in dimethylformamide at a concentration of 200 mM and diluted in buffer A to a final concentration of 2.5 mM. A few substrates were not soluble at this concentration and had to be diluted further.
10 μl 10% DMSO in buffer A
70 μl diluted FAP cell extract containing 1 ng FAP enzyme (OR control 293 cell extract without FAP)
Mix, incubate at room temperature for 1 hour, and measure fluorescence in Fluorostar fluorimeter at the following wavelengths:
AMCA conjugates: Excitation: 390 nm, Emission: 440 nm.
The fluorescence measured in the samples treated with control 293 control cell extracts without FAP is subtracted from the values measured in the samples treated with 1 ng FAP enzyme.

Where a SMILES comes first, the peptide text is derived from it. [ ]: non-standard residue; d: D form. The star is where a group is joined. X1 = Cc1c(CC(=O)O)c(=O)oc2cc(N*)ccc12; Cbz = O=C(OCc1ccccc1)*; NMeA = CN[CH](C)C(=O)O; Sar = CNCC(=O)O

With `Cc1c(CC(=O)O)c(=O)oc2cc(NC(=O)CN(C)C(=O)CNC(=O)OCc3ccccc3)ccc12` [Z-Gly-Sar-AMCA, Z-Gly-Sar-AMCA-OH], the Cleavage was 0,22 μM and the Turnover was 0,044%.
As for `Cc1c(CC(=O)O)c(=O)oc2cc(NC(=O)C(C)N(C)C(=O)CNC(=O)C(C)NC(=O)C3CCCN3C(=O)OCc3ccccc3)ccc12` (stereo not drawn) [Z-Pro-Ala-Gly-MeAla-AMCA] (Cbz-PAG[NMeA]-X1; configuration not given here), the Cleavage is given as 0,11 μM and the Turnover was 0,044%.
`Cc1c(CC(=O)O)c(=O)oc2cc(NC(=O)CN(C)C(=O)CNC(=O)C(C)NC(=O)C3CCCN3C(=O)OCc3ccccc3)ccc12` (stereo not drawn) [Z-Pro-Ala-Gly-Sar-AMCA] (Cbz-PAG[Sar]-X1; configuration not given here): the Cleavage is given as 0,09 μM and the Turnover is 0,036%.

Source of the values: patent US20020155565A1, “FAP-activated anti-tumor compounds” (priority 2000, published 2002).
